From patent publication US7084128B2, “Method for reducing intraocular pressure” (Inspire Pharmaceuticals, Inc., priority 2002, dated 2006)

Tests used:
intraocular pressure = settings: literature (Peral et al. 2000; Pintor et al. 2000); cited from earlier work
[1] = system: intraocular pressure (IOP); settings: New Zealand white rabbits; for time of maximal reduction in IOP: 0.25 mM topical single dose, IOP measured at 0.5, 1, 2 and 5 hours after application; for maximal reduction in IOP: 10 microliters of 0.25 mM in 0.9% saline, topical, unilateral, single dose, at time of maximal effect, n=4
Procedure: The actions of 2′-(O)-, 3′-(O)-(benzyl)methylenedioxy-adenosine-5′-triphosphate (Compound 1) and 2′-(O)-, 3′-(O)-(benzyl)methylenedioxy-2″-(O)-,3″-(O)-benzyl methylenedioxy-P^1, P^4-di(adenosine 5′-)tetraphosphate (Compound 2) on intraocular pressure (IOP) were assessed in New Zealand white rabbits.
Intraocular pressure measurements: IOP was measured using a TONOPEN contact tonometer supplied by MENTOR (USA). Ten microliters of the agents were applied topically and unilaterally to the cornea, whereas the contralateral eye received the same volume of saline solution. The corneas were anesthetized to avoid any discomfort associated with the use of the tonometer. Two measurements were made before application of the agents.
Pharmacological studies: Compounds were prepared at a concentration of 0.25 mM in 0.9% saline and intraocular pressure was measured at 0.5, 1, 2, and 5 hours after the application. A single dose was tested in a single animal on a single day.

Compound	effect on intraocular pressure in rabbits (intraocular pressure)	time of maximal reduction in IOP [1] [h]	maximal reduction in IOP [1] [%]
Nc1ncnc2c1ncn2[C@@H]1O[C@H](COP(=O)(O)OP(=O)(O)OP(=O)(O)OP(=O)(O)OC[C@H]2O[C@@H](n3cnc4c(N)ncnc43)[C@H](O)[C@@H]2O)[C@@H](O)[C@H]1O [Diadenosine tetraphosphate]	lower intraocular pressure		
Nc1ncnc2c1ncn2[C@@H]1O[C@H](COP(=O)(O)OP(=O)(O)CP(=O)(O)O)[C@@H](O)[C@H]1O [beta, gamma methylene adenosine triphosphate]	reduce intraocular pressure		
Nc1ncnc2c1ncn2[C@@H]1O[C@H](COP(=O)(O)CP(=O)(O)OP(=O)(O)O)[C@@H](O)[C@H]1O [Alpha, Beta-Methylene adenosine triphosphate]	reduce intraocular pressure		
Nc1ncnc2c1ncn2[C@@H]1O[C@H](COP(=O)(O)OP(=O)(O)OP(=O)(O)OP(=O)(O)OC[C@H]2O[C@@H](n3cnc4c(N)ncnc43)[C@@H]3OC(Cc4ccccc4)O[C@@H]32)[C@H]2OC(Cc3ccccc3)O[C@H]21 (stereo partly shown) [Compound 2, 2′-(O)-, 3′-(O)-(benzyl)methylenedioxy-2″-(O)-,3″-(O)-benzyl methylenedioxy-P^1, P^4-di(adenosine 5′-)tetraphosphate]		1	22
2′-(O)-, 3′-(O)-(benzyl)methylenedioxy-adenosine-5′-triphosphate [Compound 1]		1 to 2	21
